{
  "source": "patent US20250032511A1",
  "about": "“[…] USE IN TREATMENT OF SUPER […] EPILEPTICUS” (MARINUS PHARMACEUTICALS, INC., priority 2023, published 2025)",
  "key": {"[1]": {"system": "super refractory status epilepticus", "experiment": "Case report: intravenous ganaxolone in a patient with super refractory status epilepticus (EEG, mental status)", "assay_type": "in vivo, human"}, "SRSE": {"system": "SRSE", "settings": "SRSE patients; anesthesia weaned until seizures started, then higher IV doses; cited from earlier work"}, "[2]": {"settings": "in contrast to allopregnanolone; cited from earlier work"}},
  "data": [
    {"compound": "CC(=O)[C@H]1CC[C@H]2[C@@H]3CC[C@H]4C[C@](C)(O)CC[C@]4(C)[C@H]3CC[C@]12C", "note": "[Ganaxolone, 3α-hydroxy-3β-methyl-5α-pregnan-20-one]", "values": [
      {"measurement": "frequency of remaining generalized periodic discharges (GPDs) on EEG in subsequent days", "setting": "[1]; before GNX: 2-4 Hz GPDs, same patient and regimen", "result": "up to 1 Hz"},
      {"measurement": "overall outcome of the case", "setting": "[1]; late initiation of GNX (hospital day 52)", "result": "electrographic and clinical improvement"},
      {"measurement": "EEG pattern during GNX infusion", "setting": "[1]; person, SRSE, IV 20 mg bolus, 60 mg/hr first hour, then 42 mg/hr, total 7 days", "result": "marked improvement in the EEG pattern"},
      {"measurement": "mental status", "setting": "[1]; same patient, eye opening, attending, communicating with gestures and facial expressions", "result": "returned to their premorbid baseline"},
      {"measurement": "clinical outcome of earlier higher-dose regimen", "setting": "SRSE", "result": "showed early success, but seizures returned in some patients when ganaxolone serum levels were reduced"},
      {"measurement": "oral bioavailability", "setting": "[2]", "result": "orally bioavailable"}
    ]}
  ]
}
